The text below walks through data of patent US11142515B2, “Pyrazolyl-ureas as kinase inhibitors” (RESPIVERT LIMITED, priority 2014, dated 2021).

Assay [1] has as its target T1, p38 MAPKα isoform (MAPK14) (Homo sapiens, UniProt Q16539).
T1 construct: purchased Life Technologies
Briefly: p38 MAPKα enzyme inhibition (Z-LYTE FRET). It counts as biochemical. Conditions: Table 2B, unit inferred; read-out: p38 MAPKα (Enzyme Profile). Put shortly:
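Activity was measured indirectly as phosphorylation of a MAPKAP-K2-derived FRET peptide. Enzyme (added at 40 ng/mL) was preincubated 2 h at RT with compound (added solutions 40–0.0012 μg/mL).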

For a further assay, the target named is T2, p38MAPKγ (MAPK12) (Homo sapiens, UniProt P53778).
T2 construct: purchased Life Technologies
T2 sequence (P53778 1-367): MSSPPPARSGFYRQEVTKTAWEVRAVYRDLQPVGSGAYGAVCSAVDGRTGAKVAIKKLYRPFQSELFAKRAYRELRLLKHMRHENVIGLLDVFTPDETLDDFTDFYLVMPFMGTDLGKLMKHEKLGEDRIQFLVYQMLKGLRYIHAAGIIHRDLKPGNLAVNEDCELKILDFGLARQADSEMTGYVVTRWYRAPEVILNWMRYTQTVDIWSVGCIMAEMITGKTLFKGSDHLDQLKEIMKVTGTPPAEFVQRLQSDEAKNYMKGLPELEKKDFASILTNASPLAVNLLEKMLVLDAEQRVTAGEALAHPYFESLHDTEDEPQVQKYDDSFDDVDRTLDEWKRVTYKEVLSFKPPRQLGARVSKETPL
Briefly: p38 MAPKγ enzyme inhibition (Z-LYTE FRET). It counts as biochemical. Particulars: Table 2B, unit inferred; read-out: p38 MAPKγ (Enzyme Profile). Put shortly: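 Enzyme (added at 800 ng/mL) was preincubated 2 h at RT with compound (solutions of 40 to 0.0012 μg/mL), then FRET peptide (8 μM) and ATP (400 μM), both as added, were reacted 1 h at RT. Protease development followed for 1 h; phosphorylation was read as the coumarin/fluorescein emission ratio.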

T1 sequence (Q16539 whole entry, canonical isoform): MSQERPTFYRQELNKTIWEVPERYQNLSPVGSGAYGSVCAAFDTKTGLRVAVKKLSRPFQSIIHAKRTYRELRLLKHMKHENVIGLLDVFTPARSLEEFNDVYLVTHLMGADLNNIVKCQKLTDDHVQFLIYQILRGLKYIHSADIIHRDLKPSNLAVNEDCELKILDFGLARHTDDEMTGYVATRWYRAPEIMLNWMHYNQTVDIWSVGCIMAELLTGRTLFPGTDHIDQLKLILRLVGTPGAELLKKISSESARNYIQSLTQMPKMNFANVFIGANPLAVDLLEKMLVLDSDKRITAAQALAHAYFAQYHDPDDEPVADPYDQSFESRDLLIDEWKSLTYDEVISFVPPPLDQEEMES

Turning to `Cc1ccc(-n2nc(C(C)(C)C)cc2NC(=O)Nc2ccc(OCc3ccnc(Nc4cnc(C(=O)N5C[C@H](O)[C@@H](O)C5)cn4)c3)c3ccccc23)cc1` [Example 247, 1-(3-(tert-butyl)-1-(p-tolyl)-1H-pyrazol-5-yl)-3-(4-((2-((5-((3S,4S)-3,4-dihydroxy-pyrrolidine-1-carbonyl)pyrazin-2-yl)amino)pyridin-4-yl)methoxy)naphthalen-1-yl)urea], the IC50 in assay [1] is 0.007 µM; on p38MAPKγ (MAPK12) it was 0.061 µM.
For `Cc1ccc(-n2nc(C(C)(C)C)cc2NC(=O)Nc2ccc(OCc3ccnc(Nc4cnc(C(=O)N5C[C@@H](O)[C@H](O)C5)cn4)c3)c3ccccc23)cc1` [Example 248, 1-(3-(tert-butyl)-1-(p-tolyl)-1H-pyrazol-5-yl)-3-(4-((2-((5-((3R,4R)-3,4-dihydroxy-pyrrolidine-1-carbonyl)pyrazin-2-yl)amino)pyridin-4-yl)methoxy)naphthalen-1-yl)urea], in that order: 0.0047 µM and 0.051 µM.
For `Cc1ccc(-n2nc(C(C)(C)C)cc2NC(=O)Nc2ccc(OCc3ccnc(Nc4cnc(C(=O)N5CCNC(=O)C5)cn4)c3)c3ccccc23)cc1` [Example 249, 1-(3-(tert-butyl)-1-(p-tolyl)-1H-pyrazol-5-yl)-3-(4-((2-((5-(3-oxopiperazine-1-carbonyl)pyrazin-2-yl)amino)pyridin-4-yl)methoxy)naphthalen-1-yl)urea], in that order: 0.0036 µM and 0.046 µM.
The like results for `COc1cc(F)cc(-n2nc(C(C)(C)C)cc2NC(=O)Nc2ccc(OCc3ccnc(Nc4cnc(C(=O)N5CCCC5)cn4)c3)c3ccccc23)c1` [Example 250, 1-(3-(tert-butyl)-1-(3-fluoro-5-methoxyphenyl)-1H-pyrazol-5-yl)-3-(4-((2-((5-(pyrrolidine-1-carbonyl)pyrazin-2-yl)amino)pyridin-4-yl)methoxy)naphthalen-1-yl)urea] were, in that order, 0.011 µM and more than 13.7 µM.
For `CCc1ccc(-n2nc(C(C)(C)C)cc2NC(=O)Nc2ccc(OCc3ccnc(Nc4cnc(C)c(C)n4)c3)c3ccccc23)cc1` [Example 251, 1-(3-(tert-butyl)-1-(4-ethyl-phenyl)-1H-pyrazol-5-yl)-3-(4-((2-((5,6-dimethylpyrazin-2-yl)amino)pyridin-4-yl)methoxy)naphthalen-1-yl) urea], the values for the IC50 (in assay [1]; on p38MAPKγ (MAPK12)) were 0.081 µM and more than 15.6 µM, respectively.
The like results for `COCCc1cccc(-n2nc(C(C)(C)C)cc2NC(=O)Nc2ccc(OCc3ccnc(Nc4cnccn4)c3)c3ccccc23)c1` [Example 257, 1-(3-(tert-butyl)-1-(3-(2-methoxyethyl)phenyl)-1H-pyrazol-5-yl)-3-(4-((2-(pyrazin-2-ylamino)pyridin-4-yl)methoxy)naphthalen-1-yl)urea] were, in that order, 0.012 µM and 0.068 µM.
Turning to `Cc1ccc(-n2nc(C(C)(C)C)cc2NC(=O)Nc2ccc(OCc3ccnc(Nc4cnc(C(=O)N5CC[C@H](N(C)C)C5)cn4)c3)c3ccccc23)cc1` [Example 258, (S)-1-(3-(tert-butyl)-1-(p-tolyl)-1H-pyrazol-5-yl)-3-(4-((2-((5-(3-(dimethyl-amino)pyrrolidine-1-carbonyl)pyrazin-2-yl)amino)pyridin-4-yl)methoxy)naphthalen-1-yl)urea], the IC50 in assay [1] is 0.0024 µM; at p38MAPKγ (MAPK12), 0.077 µM.
The like results for `Cc1ccc(-n2nc(C(C)(C)C)cc2NC(=O)Nc2ccc(OCc3ccnc(Nc4cnc(C(=O)N5CC[C@@H](N(C)C)C5)cn4)c3)c3ccccc23)cc1` [Example 259, (R)-1-(3-(tert-butyl)-1-(p-tolyl)-1H-pyrazol-5-yl)-3-(4-((2-((5-(3-(dimethylamino)pyrrolidine-1-carbonyl)pyrazin-2-yl)amino)pyridin-4-yl)methoxy)naphthalen-1-yl)urea] were, in that order, 0.0012 µM and 0.146 µM.
For the compound `Cc1ccc(-n2nc(C(C)(C)C)cc2NC(=O)Nc2ccc(OCc3ccnc(Nc4cnc(C(=O)NCCN5CCN(C)CC5)cn4)c3)c3ccccc23)cc1` [Example 260, 5-((4-(((4-(3-(3-(tert-butyl)-1-(p-tolyl)-1H-pyrazol-5-yl)ureido)naphthalen-1-yl)oxy)methyl)pyridin-2-yl)amino)-N-(2-(4-methylpiperazin-1-yl)ethyl)pyrazine-2-carboxamide], the IC50 in assay [1] was less than 0.00039 µM; on p38MAPKγ (MAPK12), 0.047 µM.
For `CN(C)Cc1cccc(-n2nc(C(C)(C)C)cc2NC(=O)Nc2ccc(OCc3ccnc(Nc4cnccn4)c3)c3ccccc23)c1` [Example 261, 1-(3-(tert-butyl)-1-(3-((dimethylamino)methyl)phenyl)-1H-pyrazol-5-yl)-3-(4-((2-(pyrazin-2-ylamino)pyridin-4-yl)methoxy)naphthalen-1-yl)urea], in that order: less than 0.00047 µM and 0.146 µM.
For the compound `COCc1cccc(-n2nc(C(C)(C)C)cc2NC(=O)Nc2ccc(OCc3ccnc(Nc4cnc(CN5CCOCC5)cn4)c3)c3ccccc23)c1` [Example 262, 1-(3-(tert-butyl)-1-(3-(methoxymethyl)phenyl)-1H-pyrazol-5-yl)-3-(4-((2-((5-(morpholinomethyl)pyrazin-2-yl)amino)pyridin-4-yl)methoxy)naphthalen-1-yl)urea], the figures for the IC50 (in assay [1]; at p38MAPKγ (MAPK12)) were 0.011 µM and 0.174 µM, respectively.
The like results for `Cc1ccc(-n2nc(C(C)(C)C)cc2NC(=O)Nc2ccc(OCc3ccnc(Nc4cnc(CN5CCOCC5)cn4)c3)c3ccccc23)cc1` [Example 263, 1-(3-(tert-butyl)-1-(p-tolyl)-1H-pyrazol-5-yl)-3-(4-((2-((5-(morpholinomethyl)pyrazin-2-yl)amino)pyridin-4-yl)methoxy)naphthalen-1-yl)urea] were, in that order, 0.021 µM and 0.218 µM.
For `COc1cc(-n2nc(C(C)(C)C)cc2NC(=O)Nc2ccc(OCc3ccnc(Nc4cnccn4)c3)c3ccccc23)ccn1` [Example 264, 1-(3-(tert-butyl)-1-(2-methoxypyridin-4-yl)-1H-pyrazol-5-yl)-3-(4-((2-(pyrazin-2-ylamino)pyridin-4-yl)methoxy)naphthalen-1-yl)urea], in that order: 0.023 µM and 0.109 µM.
The like results for `Cc1cc(-n2nc(C(C)(C)C)cc2NC(=O)Nc2ccc(OCc3ccnc(Nc4cnccn4)c3)c3ccccc23)ccn1` [Example 265, 1-(3-(tert-butyl)-1-(2-methyl-pyridin-4-yl)-1H-pyrazol-5-yl)-3-(4-((2-(pyrazin-2-ylamino)pyridin-4-yl)methoxy)naphthalen-1-yl) urea] were, in that order, 0.011 µM and 0.057 µM.
As for `Cc1ccc(-n2nc(C(C)(C)C)cc2NC(=O)Nc2ccc(OCc3ccnc(Nc4cnc(C(=O)NCCC5CCN(C)CC5)cn4)c3)c3ccccc23)cc1` [Example 266, 5-((4-(((4-(3-(3-(tert-butyl)-1-(p-tolyl)-1H-pyrazol-5-yl)ureido)naphthalen-1-yl)oxy)methyl)pyridin-2-yl)amino)-N-(2-(1-methyl-piperidin-4-yl)ethyl) pyrazine-2-carboxamide], the IC50 in assay [1] is less than 0.00039 µM; on p38MAPKγ (MAPK12) it was 0.051 µM.
The like results for `CN(C)Cc1ccc(-n2nc(C(C)(C)C)cc2NC(=O)Nc2ccc(OCc3ccnc(Nc4cnccn4)c3)c3ccccc23)cc1` [Example 267, 1-(3-(tert-butyl)-1-(4-((dimethylamino)methyl)phenyl)-1H-pyrazol-5-yl)-3-(4-((2-(pyrazin-2-ylamino)pyridin-4-yl)methoxy)naphthalen-1-yl)urea] were, in that order, less than 0.00047 µM and 2.04 µM.
